Among the data in patent US6207677A, “Piperidine derivatives having anxiolytic effect” (H. Lundbeck A/S, priority 1991, dated 2001) are IC50 values, retold here.

As usually defined, the IC50 is the point on the concentration scale where inhibition reaches its midpoint. Low values mean inhibition by little substance, high ones a need for much substance.

The target of the test is sigma receptors. Nature of the test: Inhibition of 3H-DTG binding to sigma receptors in rat brain in vitro. To be noted: 2 nM 3H-DTG, rat brain without cerebellum, 25° C., 20 min. The method, then:
INHIBITION OF 3H-DTG BINDING TO SIGMA RECEPTORS IN RAT BRAIN IN VITRO
By this method the inhibition by drugs of the binding of 2 nM ^3 H-DTG (1,3,di-o-tolyl guanidine) to sigma receptors in homogenates or membranes from rat brain without cerebellum is determined in vitro as modified from Weber et al. Proc. Natl. Acad. Sci. 1986, 83,8784.
Homogenate: Rats (150-250 g) are decapitated and the brains (without cerebellum) quickly removed and placed on ice, weighed and homogenized in 100 vol ice-cold (0° C.) 50 mM Tris-buffer (pH 7.7) in an ethanol rinsed glass/teflon homogenizer at 0° C. and kept on ice until use.
P2-membranes: Brains are homogenized in 10 vol 0.32 M sucrose in an ethanol rinsed glass/teflon homogenizer with 10 strokes up and down. The homogenate is centrifuged for 10 min at 900×gm at 4° C. The supernatant is decanted and centrifuged for 20 min at 50,000 gm at 4° C. The resulting pellet is resuspended in 10 vol ice-cold […] Tris-buffer (pH 7.7) and incubated for 30 min. at 37° C. The membrane suspension is then centrifuged for further 20 min. at 50,000 gm at 4° C. The pellet is resuspended in 50 vol. of ice-cold Tris-buffer and used immediately.
0.5 ml 50 mM Tris-buffer (pH 7.7), 0.25 ml displacer (6×100 μM DTG, 6× [test compound], or Tris-buffer), and 0.25 ml 6×2 nM. ^3 H-DTG are mixed into 5 ml s plastic test tubes and kept at 4° C. until use. The binding reaction is initiated by mixing 0.5 ml tissue suspension into this solution and incubate at 25° C. for 20 min. Glass fiber filters (Whatman GF/B) are placed on the filter machine which is then closed tightly. Just before filtration vacuum is applied, and the filters washed with 0.1% PEI solution from a spray bottle followed by one wash with Tris-buffer.
The binding reaction is stopped by filtration of the assay mixture at reduced pressure (750 mbar) followed by further 3 washes with 5 ml ice-cold Tris-buffer. The filters are then placed in counting vials and 4 ml scintillation solution added. The vials are counted in a Beckmann scintillation counter.
50 mM Tris-buffer pH 7.7: 7.38 g Trizma--7.7 plus distilled H2 O ad 1 liter. 100 ml 10% polyethylenimine (PEI): 100 ml dest. H2 O is added to approx. 20 g 50% PEI which is solubilized by stirring and heating. Diluted (1+99) before use. 6×2 nM ^3 H-DTG: The exact volume depends on the actual concentration of the batch, but is made as close as possible to 12 nM. The containers for the radioactive solution is rinsed in 96% ethanol before use.
^3 H-DTG was obtained from NEN Research Products, Du Pont Denmark. Specific activity 62.3 Ci/mmol.
The known sigma receptor ligands BMY 14802 and rimcazole were included in the test for comparison purposes.
Molecule `C1=CC2(CCN(CCCCc3ccccc3)CC2)Oc2ccccc21` [Compound 2i, 1'-(4-Phenyl-1-butyl)spiro[2H-1-benzopyran-2,4'-piperidine]] gave an IC50 of 4.3 nM.
On to `Fc1ccc(-n2cc(CCCCN3CCC4(CC3)COCc3ccccc34)c3ccccc32)cc1` [Compound 9a, 1'-[4-[1-(4-Fluorophenyl)-3-indolyl]-1-butyl]spiro[1H-2-benzopyran-4(3H), 4'-piperidine]], for which the half-maximal inhibitory concentration (IC50) is 0.34 nM.
Regarding `Fc1ccc2occ(CCCCN3CCC4(CC3)OCc3ccccc34)c2c1` [Compound 16, 1'-[4-(5-Fluorobenzofuran-3-yl)-1-butyl]-spiro[isobenzofuran-1(3H) ,4'-piperidine]], the half-inhibitory concentration (IC50) stood at 0.15 nM.
`Fc1ccc2c(c1)c(CCCCN1CCC3(CC1)OCc1ccccc13)cn2-c1ccsc1` [Compound 9j, 1'-[4-[5-Fluoro-1-(3-thienyl)-3-indolyl]-1-butyl]-spiro[isobenzofuran-1(3H),4'-piperidine]] had an IC50 of 0.11 nM.
On to `c1ccc2c(c1)CCC2CCCCN1CCC2(CC1)OCc1ccccc12` (stereo not shown) [Compound 28, 1'-[4-(Indan-1-yl)-1-butyl]-spiro(isobenzofuran-1(3H),4'-piperidine]], for which the 50% inhibitory concentration (IC50) stood at 0.15 nM.
Turning to `c1ccc(SCCCN2CCC3(CC2)OCc2ccccc23)cc1` [Compound 2p, 1'-(3-Phenylthio-1-propyl)spiro[isobenzofuran-1(3H),4'-piperidine]], the IC50 is 0.32 nM.
Then `c1ccc(CCCCN2CCC3(CCc4ccccc43)CC2)cc1` [Compound 2c, 2,3-Dihydro-1'-(4-phenyl-1-butyl)spiro[1H-indene-1,4'-piperidine]], with 0.51 nM; and `O=S(=O)(CCCN1CCC2(CC1)OCc1ccccc12)c1ccccc1` [Compound 2s, 1'-(3-Phenylsulfonyl-1-propyl)spiro[isobenzofuran-1 (3H),4'-piperidine]], with 3.1 nM.
Molecule `Fc1ccc(C2CCN(CCCCCCc3c[nH]c4ccccc34)CC2)cc1` [Compound 2ff, 3-[6-(4-(4-Fluorophenyl)-1-piperidinyl)-1-hexyl]indole] showed an IC50 of 0.43 nM.
For `O=C1N(CCCCN2CCC3(CC2)OCc2ccccc23)CCN1C1CCCCC1` [Compound 3a, 1'-(4-(3-Cyclohexylimidazolidin-2-on-1-yl)-1-butyl)spiro[isobenzofuran-1 (3H), 4'-piperidine]] the value was 2.2 nM; for `CS(=O)(=O)n1cc(CCCCN2CCC3(CC2)OCc2ccccc23)c2ccccc21` [Compound 6a, 1'-(4-(1-Methanesulfonyl-3-indolyl)-1-butyl)spiro[isobenzofuran-1(3 H),4'-piperidine]], 0.05 nM; for `c1ccc2c(c1)COC21CCN(CCCCc2cn(-c3nccs3)c3ccccc23)CC1` [Compound 9q, 1'-[4-(1-(2-Thiazolyl)-3-indolyl)-1-butyl]spiro[isobenzofuran-1(3H) ,4'-piperidine]], 0.12 nM.
Turning to `c1ccc2c(c1)COC21CCN(CCCCc2cn(-c3ccsc3)c3ccccc23)CC1` [Compound 5c, 1'-(4-(1-(3-Thienyl)-3-indolyl]-1-butyl]spiro[isobenzofuran-1(3H),4'-piperidine]], the IC50 was determined as 0.25 nM.
The molecule `Fc1ccc(C2=CC3CCC(C2)N3CCCCc2cn(-c3ccc(F)cc3)c3ccccc23)cc1` (stereo not shown) [Compound 23, 1-(4-Fluorophenyl)-3-[4-[3-(4-fluorophenyl)-8-azabicyclo[3,2,1]-oct-2-en-8-yl]-1-butyl]-indol] showed an IC50 of 2.5 nM.
With `c1ccc2c(c1)COC1(CCN(CCCCc3csc4ccccc34)CC1)C2` [Compound 10b, 1,4-Dihydro-1'-(4-(benzo[b]thiophen-3-yl)-1-butyl)spiro[3H-2-benzopyran-3,4'-piperidine]], the IC50 was determined as 1.3 nM.
Then `c1ccc(OCCCN2CCC3(CC2)Cc2ccccc2CO3)cc1` [Compound 2l, 1'-(3-Phenoxy-1-propyl)spiro[3H-2-benzopyran-3,4'-piperidine]], with 3.8 nM; and `Fc1ccc(-n2cc(CCCCN3CCC4(CC3)OCc3ccccc34)c3cc(F)ccc32)cc1` [Compound 9b, 1'-[4-[5-Fluoro-1-(4-fluorophenyl)-3-indolyl]-1-butyl]spiro[isobenzofuran-1(3H), 4'-piperidine]], with 0.06 nM; and `O=C1N(CCN2CCC3(CC2)OCc2ccccc23)CCN1C1CCCCC1` [Compound 3d, 1'-(2-(3-Cyclohexylimidazolidin-2-on-1-yl)-1-ethyl)spiro[isobenzofuran-1(3H),4'-piperidine)], with 7.3 nM.
Take `Fc1ccc(-n2cc(CCCCN3CCC4(CC3)OCc3c(F)cccc34)c3ccccc32)cc1` [Compound 9s, 4-Fluoro-1'-[4-[1-(4-fluorophenyl)-3-indolyl]-1-butyl]spiro[isobenzofuran-1(3H),4'-piperidine]]: the IC50 was 56 nM.
On to `c1ccc2c(c1)COC21CCN(CCCCc2cn(-c3ccncc3)c3ccccc23)CC1` [Compound 5g, 1'-[4-[1-(4-Pyridyl)-3-indolyl]-1-butyl]spiro[isobenzofuran-1(3H),4'-piperidine]], for which the IC50 came out at 4 nM.
Regarding `Fc1ccc(-n2cc(OCCCN3CCC4(CC3)OCc3ccccc34)c3ccc(Cl)cc32)cc1` [Compound 8b, 1'-[3-[6-Chloro-1-(4-fluorophenyl)-3-indolytoxy)-1-propyl]spiro[isobenzofuran-1(3M),4'-piperidine]], the IC50 was 1.7 nM.
The molecule `O=C1N(CCCN2CCC3(CC2)OCc2ccccc23)CCN1c1ccccc1` [Compound 3c] gave an IC50 of 1 nM.
In turn, `CCCCCN1CCC2(CC1)OCc1ccccc12` [Compound 1b, 1'-Pentylspiro[isobenzofuran-1(3H),4'-piperidine]] returned an IC50 of 3.7 nM.
`Fc1ccc(-n2cc(OCCN3CCC4(CC3)OCc3ccccc34)c3cc(Cl)ccc32)cc1` [Compound 14a, 1'-[2-[5-Chloro-1-(4-fluorophenyl)-3-indolyloxy]-1-ethyl]spiro[isobenzofuran-1(3H)piperidine]] registered a 50% inhibitory concentration (IC50) of 24 nM.
`O=C1Nc2ccccc2C1CCCCN1CCC(c2ccc(F)cc2)CC1` (stereo not shown) [Compound 2ii, 3-[4-(4-(4-Fluorophenyl)-1-piperidyl)-1-butyl]indol-2-one]: the IC50 was determined as 5.8 nM.
Regarding `Fc1ccc2occ(COCCN3CCC4(CC3)OCc3ccccc34)c2c1` [Compound 35b, 1'-[2-(5-Fluorobenzofuran-3-ylmethyloxy)-1-ethyl]spiro[isobenzofuran-1(3H),4'-piperidine]], the IC50 worked out at 2.8 nM.
The molecule `Fc1ccc(-n2cc(CCCCN3CCC4(CC3)Cc3ccccc3CO4)c3ccccc32)cc1` [Compound 5b, 1,4-Dihydro-1'-[4-[1-(4-Fluorophenyl)-3-indolyl]-1-butyl]spiro[3H-2-benzopyran-3,4'-piperidine]] came in with an IC50 of 1.1 nM.
In turn, `O=C1N(CCN2CCC3(CC2)OCc2ccccc23)CCN1c1ccccc1` [Compound 3b] yielded an IC50 of 4.8 nM.
In turn, `Fc1ccc(C2CCN(CCCCc3cn(-c4ccc(F)cc4)c4ccccc34)CC2)cc1` [Compound 9l, 1-(4-Fluorophenyl)-3-[4-(4-(4-fluorophenyl)-1-piperidyl)-1-butyl]indole] came in with an IC50 of 0.14 nM.
The molecule `OC(CCCN1CCC2(CC1)OCc1ccccc12)C1CCCCC1` (stereo not shown) [Compound 26c, 1'-(4-Cyclohexyl-4-hydroxy-1-butyl)spiro[isobenzofuran-1(3h),4'-piperidine]] showed an IC50 of 0.14 nM.
`c1ccc2c(c1)COC21CCN(CCOCc2csc3ccccc23)CC1` [Compound 35a, 1'-[2-(Benzo[b]thiophen-3-ylmethyloxy)-1-ethyl]spiro[isobenzofuran-1(3H),4'-piperidine]] displayed an IC50 of 0.73 nM.
`CSCCCN1CCC2(CC1)OCc1ccccc12` [Compound 2n, 1'-(3-Methylthio-1-propyl)spiro[isobenzofuran-1(3H),4'-piperidine]] displayed an IC50 of 6 nM.
`c1ccc(CCCCN2CCC3(CCCc4ccccc43)CC2)cc1` [Compound 2e, 3,4-Dihydro-1'-(4-phenyl-1-butyl)spiro[naphtalene-1(2H),4'-piperidine]]: the IC50 amounted to 1.2 nM.
In the case of `c1ccc2c(c1)COC21CCN(CCCOc2csc3ccccc23)CC1` [Compound 34, 1'-[3-(Benzo[b]thiophen-3-yloxy)-1-propyl]spiro[isobenzofuran-1(3H),4'-piperidine]], the IC50 is 0.27 nM.
